In patent US4929633A, “Actinonin derivatives having physiological activities” (Zaidan Hojin Biseibutsu Kagaku Kenkyu Kai, priority 1987, dated 1990):
Entries after “also recorded” stand apart in the source; their conditions may differ.

Tests used:
[1] = target: angiotension-conversion enzyme (ACE) (Homo sapiens, UniProt P12821); test: ACE-inhibitory activity (method of Analytical Biochemistry 84, 361 (1978)); type: biochemical
Excerpt: The enzyme-inhibitory activity of the test compounds against ACE were estimated in accordance with a method as described in the literature "Analytical Biochemistry", 84, 361 (1978).

[2] = target: T1, post-proline-cleaving enzyme (PPCE) (Sus scrofa, UniProt P23687); test: PPCE-inhibitory activity (substrate Z-Gly-Pro-PNA); type: biochemical, swine; conditions: for IC50: 37° C., 15 minutes, PPCE from swine kidney
T1 construct: PPCE used was an enzyme preparation made from swine kidney; from tissue; host or cells: swine kidney, ammonium sulfate fractionation and DEAE-Sephadex chromatography
Experimental: The enzyme-inhibitory activities of these test compounds against PPCE were estimated by adding a substrate compound of the formula [drawing 18] namely, N-benzyloxycarbonyl-glycyl-prolyl-p-nitroanilide (Z-Gly-Pro-PNA) to a solution of an enzyme, then adding to the solution each test compound having the enzyme-inhibiting activity to be assayed, reacting the substrate, the enzyme and the test compounds with each other at 37° C. for 15 minutes and then measuring the consumed amount of the substrate in terms of the determined reduction in the absorbency of a ultraviolet ray of a given wave length which transmitted the reaction solution where the substrate compounds, the enzyme and the enzyme-inhibiting test compound have been reacted with each other. In these tests, PPCE used was an enzyme preparation made from swine kidney and prior to its use, was purified by fractionation with ammonium sulfate and by subsequent chromatography on DEAE-Sephadex agent.

[3] = system: experimental amnesia in mice; test: step-down type passive avoidance response test, cycloheximide-induced amnesia in mice; type: in vivo, mouse (male ddy-mice); conditions: for Residence time: 24 h, max 300 s, control mice 220 ± 37
Experimental: These experiments were performed using male ddy-mice having an average body weight of 25 g as the test animal. A platform in cubic form having a length of 4 cm for each side of the cube was arranged in a cage on the floor of the cage. Each mouse was placed on the platform. An electric current-feeding device had been provided on the floor area of the cage which positioned outside the platform. It was so arranged that whenever the mouse descended onto the floor from the platform, a 60 V electric current was caused to pass through the floor for 0.5 second to shock the mouse so as to have the mouse learn the shocking passage of electric current. Immediately after the mouse's learning, the mouse was subcutaneously administered with 30 mg/kg of cycloheximide so as to induce experimental amnesia. Each test compound had been intraperitoneally administered to the mouse at a time of 15 minutes before the mouse's learing was commenced. Upon an elapsed time of 24 hours after the completion of the mouse's learning for the electric current passage, the mouse treated as above was again placed on the same platform in the same cage under the same conditions, and the residence time of the mouse staying on the platform was measured under a pre-requisit that a maximum residence time as determined was set to be up to 300 seconds.
The results of the experiments for the cycloheximide-induced amnestic mice as treated by the previous intraperitoneal administration of the test compound of this invention are summarized in Table 2 below.

peptidases = conditions: Journal of Antibiotics 38, 1629-1630 (1985); cited from earlier work
[4] = U.S. Pat. No. 3,240,787; cited from earlier work
[5] = Kokai No. 15840/86; U.S. Pat. No. 4,663,342; cited from earlier work
[6] = system: enkephalin-degrading enzymes; conditions: Kokai No. 4228/87; cited from earlier work
[7] = Kokai No. 4228/87; cited from earlier work

Sequence of angiotension-conversion enzyme (ACE) (P12821 30-1306, species assumed): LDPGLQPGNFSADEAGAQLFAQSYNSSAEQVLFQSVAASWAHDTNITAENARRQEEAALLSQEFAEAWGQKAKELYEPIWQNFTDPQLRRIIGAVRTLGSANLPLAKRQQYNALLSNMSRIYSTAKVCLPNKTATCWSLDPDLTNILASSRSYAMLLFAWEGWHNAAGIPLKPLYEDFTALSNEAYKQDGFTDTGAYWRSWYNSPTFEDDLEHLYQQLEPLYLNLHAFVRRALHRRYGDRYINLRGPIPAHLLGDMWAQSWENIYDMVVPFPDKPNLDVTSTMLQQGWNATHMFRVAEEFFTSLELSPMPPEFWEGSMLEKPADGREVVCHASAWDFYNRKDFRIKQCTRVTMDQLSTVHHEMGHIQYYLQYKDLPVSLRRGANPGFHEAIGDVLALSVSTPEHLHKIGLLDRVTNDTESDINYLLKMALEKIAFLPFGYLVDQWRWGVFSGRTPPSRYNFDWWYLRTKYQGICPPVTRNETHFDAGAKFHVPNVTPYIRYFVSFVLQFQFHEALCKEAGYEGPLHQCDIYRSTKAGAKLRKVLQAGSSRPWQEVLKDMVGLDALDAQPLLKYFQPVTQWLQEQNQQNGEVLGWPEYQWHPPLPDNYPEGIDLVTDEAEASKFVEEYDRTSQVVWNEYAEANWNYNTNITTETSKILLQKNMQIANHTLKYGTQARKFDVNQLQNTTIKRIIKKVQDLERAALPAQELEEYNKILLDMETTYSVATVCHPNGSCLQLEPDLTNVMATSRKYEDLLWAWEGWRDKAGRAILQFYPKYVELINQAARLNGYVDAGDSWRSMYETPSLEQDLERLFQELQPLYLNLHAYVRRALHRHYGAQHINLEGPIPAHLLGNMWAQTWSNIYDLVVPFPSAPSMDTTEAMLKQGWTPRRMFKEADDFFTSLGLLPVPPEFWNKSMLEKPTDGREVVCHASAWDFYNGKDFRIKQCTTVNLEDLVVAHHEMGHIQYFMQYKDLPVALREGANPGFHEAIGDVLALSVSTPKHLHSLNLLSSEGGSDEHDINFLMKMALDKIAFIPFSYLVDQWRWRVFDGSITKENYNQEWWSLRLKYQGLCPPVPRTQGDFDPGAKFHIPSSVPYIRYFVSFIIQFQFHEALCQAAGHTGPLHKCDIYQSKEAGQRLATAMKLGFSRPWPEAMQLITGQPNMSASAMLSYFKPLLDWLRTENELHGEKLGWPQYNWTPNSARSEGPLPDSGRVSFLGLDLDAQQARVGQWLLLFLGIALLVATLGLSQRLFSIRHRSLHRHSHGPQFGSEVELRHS
T1 sequence (P23687 whole entry): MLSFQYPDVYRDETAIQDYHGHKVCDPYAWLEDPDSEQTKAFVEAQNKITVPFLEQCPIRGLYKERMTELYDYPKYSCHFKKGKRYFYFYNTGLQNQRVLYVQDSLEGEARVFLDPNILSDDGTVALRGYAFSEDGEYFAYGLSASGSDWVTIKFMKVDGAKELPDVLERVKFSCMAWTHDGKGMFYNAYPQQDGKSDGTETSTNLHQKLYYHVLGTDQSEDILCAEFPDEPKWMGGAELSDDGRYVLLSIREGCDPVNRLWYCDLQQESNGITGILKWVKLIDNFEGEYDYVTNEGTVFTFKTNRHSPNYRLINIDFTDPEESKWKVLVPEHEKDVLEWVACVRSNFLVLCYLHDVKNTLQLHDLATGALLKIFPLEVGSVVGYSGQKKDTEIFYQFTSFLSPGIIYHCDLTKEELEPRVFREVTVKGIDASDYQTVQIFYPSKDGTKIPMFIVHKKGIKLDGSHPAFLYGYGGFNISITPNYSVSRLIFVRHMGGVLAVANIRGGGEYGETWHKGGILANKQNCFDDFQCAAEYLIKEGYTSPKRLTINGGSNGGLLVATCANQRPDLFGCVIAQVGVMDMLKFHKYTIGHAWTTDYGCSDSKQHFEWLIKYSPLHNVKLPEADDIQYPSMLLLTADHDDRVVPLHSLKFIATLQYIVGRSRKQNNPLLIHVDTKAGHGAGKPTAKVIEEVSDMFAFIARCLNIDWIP

Row | IC50 [1] | IC50 [2] | Structure (SMILES) | ACE-inhibitory activity (in words) [1] | PPCE-inhibitory activity (in words) [2] | other results
1 | > 126 µM | 0.0555 µM | CCCCC[C@H](CC(=O)OCC)C(=O)N[C@H](C(=O)N1CCC[C@H]1C=O)C(C)C [Example 2, (2S)-3-Ethoxycarbonyl-2-pentylpropionyl-L-valyl-L-prolinal] | no enzyme-inhibitory activity against ACE | strong PPCE-inhibitory activity | Residence time ([3]; 3 mg/kg i.p. 15 min before learning, cycloheximide 30 mg/kg s.c., n=9, cycloheximide alone 114 ± 26): 188 ± 35 s; Residence time ([3]; 10 mg/kg i.p. 15 min before learning, cycloheximide 30 mg/kg s.c., n=9, cycloheximide alone 114 ± 26): 180 ± 26 s; therapeutic effects to treat the experimental amnesia (in words) ([3]; cycloheximide-induced amnesia, mice): marked therapeutic effects
2 | > 135 µM | > 135 µM | CCCCC[C@H](CC(=O)O)C(=O)N[C@H](C(=O)N1CCC[C@H]1CO)C(C)C [Compound of the Formula (III), (2S)-2-pentylsuccinyl-L-valyl-L-prolinol] |  |  | 
3 |  |  | C[C@@H]1C[C@@H]([C@H](O)CC2CC(=O)NC(=O)C2)C(=O)[C@@H](C)C1 [cycloheximide] |  |  | Residence time ([3]; cycloheximide alone (comparative), 30 mg/kg s.c. after learning, n=10): 114 ± 26 s
4 | > 136 µM | 0.0841 µM | CCCCC[C@H](CC(=O)O)C(=O)N[C@H](C(=O)N1CCC[C@H]1C=O)C(C)C [Example 1, (2S)-2-pentylsuccinyl-L-valyl-L-prolinal] |  |  | 

Row | Structure (SMILES) | IC50 [1] | IC50 [2] | ACE-inhibitory activity (in words) [1] | PPCE-inhibitory activity (in words) [2] | other results
5 | CCCCC[C@H](CC(=O)NO)C(=O)N[C@H](C(=O)N1CCC[C@H]1CO)C(C)C [Actinonin] | 37.9 µM | 77.8 µM | medium enzyme-inhibitory activity; also recorded: medium enzyme-inhibitory activities | medium enzyme-inhibitory activity; also recorded: medium enzyme-inhibitory activities | inhibition of peptidases (in words) (peptidases): inhibit a wide variety of peptidases; antibacterial activity (in words) [4]: antibacterial activity; immunopotentiating activity (in words) [5]: immunopotentiating activity; inhibition of the enkephalin-degrading enzymes (in words) [6]: can inhibit the enkephalin-degrading enzymes; anodyne activity (in words) [7]: anodyne activity
